Strand notation (5' to 3'): a small letter for the sugar, then the base; units joined by * are phosphorothioate-linked, units joined directly phosphodiester-linked; [ ] holds rarer units or linkages, { } end groups; capitals alone tell only the bases. e = 2'-O-(2-methoxyethyl) (MOE); [5mC] = 5-methylcytosine; d = 2'-deoxy (DNA)
Assays:
JNK1 protein = experiment: Western assay of JNK1 protein levels in A549 cells; type: cell-based, human; conditions: 300 nM for 20 hours then 200 nM for 4 hours
Protocol: (§1) In order to evaluate the activity of potential JNK-modulating oligonucleotides, human lung carcinoma cell line A549 (American Type Culture Collection, Rockville, Md. No. ATCC CCL-185) cells or other cell lines as indicated in the Examples, were grown and treated with oligonucleotides or control solutions as detailed below. After harvesting, cellular extracts were prepared and examined for specific JNK mRNA levels or JNK protein levels (i.e., Northern or Western assays, respectively). In all cases, “% expression” refers to the amount of JNK-specific signal in an oligonucleotide-treated cell relative to an untreated cell (or a cell treated with a control solution that lacks oligonucleotide), and “% inhibition” is calculated as
Western Assays: A549 cells were grown and treated with oligonucleotides as described above. Cells were lysed, and protein extracts were electrophoresed (SDS-PAGE) and transferred to nitrocellulose filters by means known in the art (see, e.g., Chapter 18 In: Molecular Cloning: A Laboratory Manual, 2nd Ed., Sambrook et al., Eds., pages 18.34, 18.47-18.54 and 18.60-18.75)). The amount of each JNK protein was determined by using a primary antibody that specifically recognizes the appropriate JNK protein. The primary antibodies specific for each JNK protein are described in the appropriate Examples. The primary antibodies were detected by means well known in the art (see, e.g., Short Protocols in Molecular Biology, 2nd Ed., Ausubel et al., Eds., John Wiley & Sons, New York, 1992, pages 10-33 to 10-35; and Chapter 18 In: Molecular Cloning: A Laboratory Manual, 2nd Ed., Sambrook et al., Eds., pages 18.1-18.75 and 18.86-18.88) and quantitated using a PHOSPHORIMAGER™ essentially according to the manufacturer's instructions (Molecular Dynamics, Sunnyvale, Calif.).
F. Western Assays: In order to assess the effect of oligonucleotides targeted to JNK1 mRNAs on JNK1 protein levels, Western assays were performed essentially as described above in Example 2, with the following exception(s) and/or modification(s). A primary antibody that specifically binds to JNK1 (catalog No. sc-474-G) was purchased from Santa Cruz Biotechnology, Inc. (Santa Cruz, Calif.; other JNK1-specific antibodies are available from StressGen Biotechnologies, Inc., Victoria, BC, Canada; and Research Diagnostics, Inc., Flanders, N.J.). In this experiment, cells were grown and treated with oligonucleotide at 300 nM for the initial 20 hours and then at 200 nM for 4 hours. At t=48 h, aliquots were removed for Northern and Western analyses, and fresh media was added to the cells. Aliquots for analysis were also taken at t=72 h. The samples from t=48 h and t=72 h were analyzed using the Northern and Western assays described above.

JNK1 mRNA = experiment: Northern assay of JNK1 mRNA expression in A549 cells; type: cell-based, human; conditions: for RNA % Control / RNA % Inhibition: 300 nM for 20 hours then 200 nM for 4 hours
Protocol: as §1
100%−% Expression =% Inhibition.
Northern Assays: The mRNA expression of each JNK protein was determined by using a nucleic acid probe specifically hybridizable thereto. Nucleic acid probes specific for JNK1, JNK2 and JNK3 are described in Examples 3, 4 and 5, respectively. The probes were radiolabelled by means well known in the art (see, e.g., Short Protocols in Molecular Biology, 2nd Ed., Ausubel et al., Eds., John Wiley & Sons, New York, 1992, pages 3-11 to 2-3-44 and 4-17 to 4-18; Ruth, Chapter 6 In: Methods in Molecular Biology, Vol. 26: Protocols for Oligonucleotide Conjugates, Agrawal, ed., Humana Press Inc., Totowa, N.J., 1994, pages 167-185; and Chapter 10 In: Molecular Cloning: A Laboratory Manual, 2nd Ed., Sambrook et al., Eds., pages 10.1-10.70). The blots were stripped and reprobed with a ^32P-labeled glyceraldehyde 3-phosphate dehydrogenase (G3PDH) probe (Clontech Laboratories, Inc., Palo Alto, Calif.) in order to confirm equal loading of RNA and to allow the levels of JNK transcripts to be normalized with regard to the G3PDH signals.
A549 cells were grown in T-75 flasks until 80-90% confluent. At this time, the cells were washed twice with 10 mL of media (DMEM), followed by the addition of 5 mL of DMEM containing 20 μg/mL of LIPOFECTIN™ (i.e., 1:1 (w/w) DOTMA/DOPE, Life Technologies, Gaithersburg, Md.; DOTMA=N-[1-(2,3-dioleyoxy)propyl]-N,N,N-trimethylammonium chloride; DOPE=dioleoyl phosphatidylethanolamine). The oligonucleotides were added from a 10 μM stock solution to a final concentration of 400 nM, and the two solutions were mixed by swirling the flasks. As a control, cells were treated with LIPOFECTIN™ without oligonucleotide under the same conditions and for the same times as the oligonucleotide-treated samples. After 4 hours at 37° C., the medium was replaced with fresh DMEM containing 10% serum. The cells were allowed to recover for 18 hours. Total cellular RNA was then extracted in guanidinium, subject to gel electrophoresis and transferred to a filter according to techniques known in the art (see, e.g., Chapter 7 In: Molecular Cloning: A Laboratory Manual, 2nd Ed., Sambrook et al., Eds., pages 7.1-7.87, and Short Protocols in Molecular Biology, 2nd Ed., Ausubel et al., Eds., John Wiley & Sons, New York, 1992, pages 2-24 to 2-30 and 4-14 to 4-29). Filters were typically hybridized overnight to a probe specific for the particular JNK gene of interest in hybridization buffer (25 mM KPO4, pH 7.4; 5×SSC; 5× Denhardt's solution, 100 μg/ml Salmon sperm DNA and 50% formamide) (Alahari et al., Nucl. Acids Res., 1993, 21, 4079). This was followed by two washes with 1×SSC, 0.1% SDS and two washes with 0.25×SSC, 0.1% SDS. Hybridizing bands were visualized by exposure to X-OMAT AR film and quantitated using a PHOSPHORIMAGER™ essentially according to the manufacturer's instructions (Molecular Dynamics, Sunnyvale, Calif.)
B. JNK1-specific probes: In initial screenings of a set of oligonucleotides derived from the JNK1 sequence (Table 2) for biological activity, a cDNA clone of JNK1 (Derijard et al., Cell, 1994, 76, 1025) was radiolabeled and used as a JNK1-specific probe in Northern blots. […]

[1] = JNK1 mRNA time course, t=0 h after 4 hour treatment
[2] = JNK1 mRNA time course, time 272 h [sic] (t=72 h in text)
[3] = JNK1 mRNA, chemically modified oligonucleotides, dose 100 nM
[4] = JNK1 mRNA, chemically modified oligonucleotides, dose 400 nM

| Substance | Protein % Control (JNK1 protein; t = 48 h) [%] | Protein % Control (JNK1 protein; t = 72 h) [%] | Normalized % Control (JNK1 mRNA; [3]) [%] | Normalized % Control (JNK1 mRNA; [4]) [%] | RNA % Control (JNK1 mRNA; JNK1 mRNA, t = 48 h) [%] | RNA % Control (JNK1 mRNA; JNK1 mRNA, t = 72 h) [%] | Protein % Inhibition (JNK1 protein; t = 48 h) | Protein % Inhibition (JNK1 protein; t = 72 h) [%] | RNA % Inhibition (JNK1 mRNA; JNK1 mRNA, t = 72 h) | RNA % Inhibition (JNK1 mRNA; JNK1 mRNA, t = 48 h) [%] | other results |
| --- | --- | --- | --- | --- | --- | --- | --- | --- | --- | --- | --- |
| 12539 (antisense CTCTCTGTAGGCCCGCTTGG; DNA, all phosphorothioate, methylation of C not given here) [compound 12539] | 44.3 | 29.2 | 56.4 | 26.7 | 6.7 | 11.7 |  |  |  |  | Normalized % Control (JNK1 mRNA; JNK1 mRNA dose response, 50 nM): 70.3%; Normalized % Control (JNK1 mRNA; JNK1 mRNA dose response, 100 nM): 51.6%; Normalized % Control (JNK1 mRNA; JNK1 mRNA dose response, 200 nM): 22.4%; Normalized % Control (JNK1 mRNA; JNK1 mRNA dose response, 400 nM): 11.1%; % INHIBITION (JNK1 mRNA; [1]): 85.9%; Normalized % Control (JNK1 mRNA; [1]): 14.1%; % INHIBITION (JNK1 mRNA; JNK1 mRNA time course, t=4 h): 94.1%; Normalized % Control (JNK1 mRNA; JNK1 mRNA time course, t=4 h): 5.9%; % INHIBITION (JNK1 mRNA; JNK1 mRNA time course, t=12 h): 88.4%; Normalized % Control (JNK1 mRNA; JNK1 mRNA time course, t=12 h): 11.6%; % INHIBITION (JNK1 mRNA; JNK1 mRNA time course, t=48 h): 79.0%; Normalized % Control (JNK1 mRNA; JNK1 mRNA time course, t=48 h): 21.0%; % INHIBITION (JNK1 mRNA; [2]): 58.5%; Normalized % Control (JNK1 mRNA; [2]): 41.5%; % EXPRESSION (JNK1 mRNA; JNK1 mRNA, A549 cells, 400 nM oligonucleotide, relative to LIPOFECTIN-only control): 9% |
| 15345 (antisense e[5mC]*eT*e[5mC]*eT*e[5mC]*eT*eG*eT*eA*eG*eG*e[5mC]*e[5mC]*e[5mC]*eG*e[5mC]*eT*eT*eG*eG) [compound 15345] | 105.0 | 87.8 | 95.4 | 89.1 | 70.3 | 187.4 | (0.0) % | 12.2 | (0.0) % |  |  |
| 15347 (antisense CTCTCTGTAGGCCCGCTTGG; sugars from the 5' end e5 d9 e6, [5mC] at 1, 3, 5, 16, linkages o4 s10 o5 (s phosphorothioate, o phosphodiester), methylation of C not given here) [compound 15347] | 38.8 | 28.4 | 27.1 | 11.7 | 7.9 | 8.2 |  |  | 81.8% | 92.1 | inhibition of JNK1 mRNA expression (JNK1 mRNA; chemically modified derivatives of ISIS 12539, 400 nM (Table 5)): at least 88% |
| 15348 (antisense CTCTCTGTAGGCCCGCTTGG; sugars from the 5' end e11 d9, [5mC] at 1, 3, 5, all phosphorothioate, methylation of C not given here) [compound 15348] | 58.3 | 41.7 | 30.4 | 32.9 | 24.3 | 28.0 | 41.7% | 58.3 | 72.0% | 75.7 |  |
| 15349 (antisense CTCTCTGTAGGCCCGCTTGG; sugars from the 5' end d9 e11, [5mC] at 12, 13, 14, 16, all phosphorothioate, methylation of C not given here) [compound 15349] | 69.5 | 56.5 | 42.5 | 35.5 | 63.1 | 52.0 | 30.5% | 43.5 | 48.0% | 36.9 |  |
| 15350 (antisense CTCTCTGTAGGCCCGCTTGG; sugars from the 5' end d9 e11, [5mC] at 12, 13, 14, 16, linkages s9 o10 (s phosphorothioate, o phosphodiester), methylation of C not given here) [compound 15350] | 71.7 | 58.4 | 71.1 | 41.3 | 49.2 | 54.4 | 28.3% | 41.6 | 45.6% | 50.0 |  |

— patent US20040029823A1, “Antisense oligonucleotide compositions and methods for the modulation of JNK proteins” (priority 1997, published 2004)
